Reference: patent publication US9586947B2, “Imidazoline derivatives, preparation methods thereof, and their applications in medicine” (priority 2012, dated 2017)

Assays:
[1] = test system: LNCaP cells; test: Proliferation inhibition of LNCaP cells (CCK-8); format: cell-based; conditions: Homo sapiens, 144 h, cultured 3 + 3 days, CCK-8, OD at 450 nm
Procedure: The following in vitro assay was performed to determine the activity of the compounds of the present invention for inhibiting the proliferation of LNCaP cells.
(1). Cell counting reagent CCK-8 (DOJINDO, CK04)
See experimental procedure from Test Example 1.
After LNCaP cells were cultured for 3 days, the culture medium, test compounds, blank group, and control group were renewed with half of the liquid volume, and were cultured for another 3 days. Then, all 96-well plates were mixed gently with 10 μl of CCK-8 and cultured in an incubator for 2-3 hours under the conditions of 37° C. and 5% CO2. The OD value per well was measured at 450 nm on a Victor3 microplate reader.
(§1) IC50 values were calculated from the data of the inhibition rates of the test compounds at various concentrations.

[2] = test system: PSA secretion of LNCaP cells; test: Inhibitory activity on PSA secretion of LNCaP cells; format: cell-based; conditions: Homo sapiens, 96 h; LNCaP cells, 1 nM testosterone medium, 4 days of incubation, PSA kit OD450; read-out: IC50 (inhibition of PSA secretion of LNCaP cells)
Procedure: The following in vitro assay was performed to determine the activity of the compounds of the present invention for inhibiting prostate specific antigen (PSA) secretion of LNCaP cells.
(11). Testosterone culture medium: RIPM 1640 culture medium, 10% CS-FBS, 1% Pen Strep, 1 nM testosterone
LNCaP cells were subcultured in cell culture medium, resuspended in active carbon culture medium, and then inoculated into a 96-well plate (100 μl/well) with an inoculation density of 5×10^4 cells/well.
The test compounds were dissolved in DMSO (dimethyl sulfoxide) and prepared as a 10 mM stock solution. When used, the stock solution was diluted with 5×DMSO and then diluted with a threefold gradient to obtain 8 gradient concentrations. Then, the 8 gradient concentrations were each diluted with 20× testosterone culture medium, in order to ensure DMSO concentration in each culture system was 0.5%. Diluted test compounds remained to be tested.
10 μl of diluted test compounds were added to a 96-well plate and mixed gently. 10 μl of 0.5% DMSO diluted with active carbon culture medium was added to the blank group, and 10 μl of 0.5% DMSO diluted with testosterone culture medium was added to the control group. The 96-well plate was cultured in an incubator under the conditions of 37° C. and 5% CO2.
After 4 days of incubation, 60 μl of cell cultural supernatants were collected, and the OD450 value per well was measured on a NOVO Star microplate reader using PSA kit (Abnova, KA0208).
as §1

Which results are given for CC1(C)C(=O)N(c2ccc(C#N)c(C(F)(F)F)c2)C(=S)N1c1ccc(OCC2CCOC2)nc1 (stereo not shown) [Example 25, 4-(4,4-Dimethyl-5-oxo-3-(6-((tetrahydrofuran-3-yl)methoxy)pyridin-3-yl)-2-thioxoimidazolidin-1-yl)-2-(trifluoromethyl)benzonitrile]?
IC50 [1]: 111 nM; IC50 [2]: 31 nM

CN1CCC(Oc2ccc(N3C(=S)N(c4ccc(C#N)c(C(F)(F)F)c4)C(=O)C3(C)C)cc2F)CC1 [Example 20, 4-(3-(3-Fluoro-4-((1-methylpiperidin-4-yl)oxy)phenyl)-4,4-dimethyl-5-oxo-2-thioxoimidazolidin-1-yl)-2-(trifluoromethyl)benzonitrile] was tested. Which IC50 [1] did it give?
The IC50 was 156 nM.

And the IC50 [2]?
The IC50 was 57 nM.

For CC1(C)C(=O)N(c2ccc(C#N)c(C(F)(F)F)c2)C(=S)N1c1ccc(OCC(O)CO)cc1 (stereo not shown) [Example 48, 4-(3-(4-(2,3-Dihydroxypropoxy)phenyl)-4,4-dimethyl-5-oxo-2-thioxoimidazolidin-1-yl)-2-(trifluoromethyl)benzonitrile], which IC50 [1] is on record?
The IC50 was 281 nM.

And the IC50 [2]?
The IC50 was 37 nM.

For CNC(=O)C1(COc2ccc(N3C(=S)N(c4ccc(C#N)c(C(F)(F)F)c4)C(=O)C3(C)C)cc2F)CC1 [Example 34, 1-((4-(3-(4-Cyano-3-(trifluoromethyl)phenyl)-5,5-dimethyl-4-oxo-2-thioxoimidazolidin-1-yl)-2-fluorophenoxy)methyl)-N-methylcyclopropanecarboxamide], which IC50 [1] is on record?
The IC50 was 159 nM.

What about the IC50 [2] of the same compound?
Its IC50 is 51 nM.

With CC1(C)C(=O)N(c2ccc(C#N)c(Cl)c2)C(=S)N1c1ccc(OCC2(N)CC2)c(F)c1 [Example 35, 4-(3-(4-((1-Aminocyclopropyl)methoxy)-3-fluorophenyl)-4,4-dimethyl-5-oxo-2-thioxoimidazolidin-1-yl)-2-chlorobenzonitrile] as the compound, how does the IC50 [1] read?
The IC50 was 277 nM.

And the IC50 [2]?
Its IC50 is 57 nM.

For CC1(C)C(=O)N(c2ccc(C#N)c(C(F)(F)F)c2)C(=S)N1c1ccc(OC(F)F)c(F)c1 [Example 3, 4-(3-(4-(Difluoromethoxy)-3-fluorophenyl)-4,4-dimethyl-5-oxo-2-thioxoimidazolidin-1-yl)-2-(trifluoromethyl)benzonitrile], which IC50 [1] is on record?
Its IC50 is 46 nM.

And the IC50 [2]?
The IC50 was 35 nM.

For CC1(C)C(=O)N(c2ccc(C#N)c(C(F)(F)F)c2)C(=S)N1c1ccc(OC2CCNC2)c(F)c1 (stereo not shown) [Example 28, 4-(3-(3-Fluoro-4-((pyrrolidin-3-yl)oxy)phenyl)-4,4-dimethyl-5-oxo-2-thioxoimidazolidin-1-yl)-2-(trifluoromethyl)benzonitrile], which IC50 [1] is on record?
Its IC50 is 79 nM.

And the IC50 [2]?
Its IC50 is 82 nM.

CC1(C)C(=O)N(c2ccc(C#N)c(C(F)(F)F)c2)C(=S)N1c1ccc(O[C@H]2CCOC2)nc1 [Example 24, (S)-4-(4,4-Dimethyl-5-oxo-3-(6-((tetrahydrofuran-3-yl)oxy)pyridin-3-yl)-2-thioxoimidazolidin-1-yl)-2-(trifluoromethyl)benzonitrile] was tested. Which IC50 [1] did it give?
The IC50 was 92 nM.

What about the IC50 [2] of the same compound?
Its IC50 is 32 nM.

Which IC50 [1] does the source give for CC1(C)C(=O)N(c2ccc(C#N)c(C(F)(F)F)c2)C(=S)N1c1ccc(OC2CCS(=O)(=O)CC2)c(F)c1 [Example 23, 4-(3-(4-((1,1-Dioxidotetrahydro-2H-thiopyran-4-yl)oxy)-3-fluorophenyl)-4,4-dimethyl-5-oxo-2-thioxoimidazolidin-1-yl)-2-(trifluoromethyl)benzonitrile] here?
The IC50 was 180 nM.

And the IC50 [2]?
Its IC50 is 24 nM.

With CC1(C)C(=O)N(c2ccc(C#N)c(C(F)(F)F)c2)C(=S)N1c1ccc(OCC2(O)CC2)c(F)c1 [Example 5, 4-(3-(3-Fluoro-4-((1-hydroxycyclopropyl)methoxy)phenyl)-4,4-dimethyl-5-oxo-2-thioxoimidazolidin-1-yl)-2-(trifluoromethyl)benzonitrile] as the compound, how does the IC50 [1] read?
The IC50 was 87 nM.

What about the IC50 [2] of the same compound?
Its IC50 is 124 nM.

Which IC50 [1] does the source give for CC1(C)C(=O)N(c2ccc(C#N)c(C(F)(F)F)c2)C(=S)N1c1ccc(O[C@H]2CCOC2)c(F)c1 [Example 2, (S)-4-(3-(3-Fluoro-4-((tetrahydrofuran-3-yl)oxy)phenyl)-4,4-dimethyl-5-oxo-2-thioxoimidazolidin-1-yl)-2-(trifluoromethyl)benzonitrile] here?
The IC50 was 97 nM.

What about the IC50 [2] of the same compound?
The IC50 was 45 nM.
